Where “and” joins values, the source holds several entries; their conditions need not be identical. Identical values can stand only once.
How the values were obtained:
[1] = Neutron reflectivity of amphiphile binding to lipid monolayer; settings: C14KKGGII 5 μM, C14TAB 2.5 μM, C12TAB 75 μM; for Γamphiphile, amount bound to DPPC monolayer / Γamphiphile, amount bound to DPPG monolayer: monolayer at 28 mN/m; for DPPG lipid removed from monolayer: NR
Procedure: Single-component lipid monolayer models in a Langmuir trough (12.5 cm × 15 cm, Nima Technology Ltd., UK) were employed to investigate interactions between amphiphiles and lipids. The trough was filled with 70 mL of PBS at room temperature to provide a physiological environment.[23]−[25] Saturated head-charged lipid DPPG and saturated zwitterionic DPPC monolayers, mimicking negatively charged microbial membranes and mammalian cell membranes, respectively, were formed, and their interactions with amphiphiles were controlled by injecting each amphiphile carefully from outside the trough barrier. The lipids were dissolved in a chloroform/methanol mixture (v/v 9:1) to form the spreading solution. The lipid monolayer was spread by dripping the lipid solution onto the surface of the PBS solution. Following stabilization of the surface pressure, three cycles of isothermal compression and expansion were carried out to make the monolayer homogeneous. The surface was controlled at an initial pressure of 28 mN/m to mimic the static pressure within cell membranes. The final concentration of the amphiphile after injection was 1/40 of its CAC value for C14TAB, while the final concentration was 3/40 CAC for C12TAB because of its relatively higher MICs. Surface pressure changes with time following the injection process were recorded and analyzed.
Monolayer models described above were characterized using neutron reflectivity (NR) to measure the component distribution normal to the air/liquid interface. Measurements were performed on the SURF reflectometer at the ISIS Neutron and Muon Source (STFC Rutherford Appleton Laboratory, Didcot, UK).[23]−[25] The instrument provided a momentum transfer (Q) range from 0.01 to 0.5 Å^–1 [Q = […], where λ is the wavelength of the incoming neutron beam and θ is the incident angle]. At the start of the NR measurements, the reflectivity of the air/D2O interface was used for instrument calibration. Monolayers were prepared on the beamline. For each interaction, different isotopic contrasts were examined by applying chain-deuterated or fully hydrogenated versions of lipids (d62-DPPG, DPPG, d62-DPPC, and DPPC, denoted as dDPPG, hDPPG, dDPPC, and hDPPC, respectively) on the surface of PBS in D2O or null reflecting water (NRW, H2O/D2O = 91.9%/8.1%, v/v) and injecting deuterated or protonated versions of amphiphiles (C14KKGGII, dC14KKGGII, C12TAB, dC12dTAB, and C14TAB, denoted as hC14KKGGII, dC14KKGGII, hC12TAB, dC12TAB, and hC14TAB, respectively) from underneath the lipid monolayer outside the trough barrier bar. Reflectivity profiles from lipid monolayers were scanned before amphiphile injection to ensure good monolayer reproducibility. Raw data were reduced using Mantid software, and the resultant NR profiles were fitted via the least squares method using a Motofit package on Igor 6, where a multilayer model was employed in the analysis. The thickness and scattering length density (SLD, Nb) of each layer, that is, lipid tail region, lipid head region, and lipopeptide region, were fitted to the data. The SLD of each layer is related to the volume fractions of its components and could be calculated using Nb = ∑iφiNbi, where i denotes each component, for example, the solvent, lipid tails, lipid heads, lipopeptides’ acyl chains, and lipopeptides’ amino acids, and φi represents the volume fraction of component i and is constrained by ∑iφi = 1 in each layer. More details about the division of the molecular head/tail groups and relevant fitting parameters can be found in Figure S3 and Tables S3 and S4.

[2] = tested on: E. coli (ATCC 25922); assay type: cell-based, Escherichia coli; settings: for MIC/CAC, converted data, E. coli: MIC divided by the amphiphile's CAC; for MIC, E. coli: microdilution, serial half-dilution in PBS, Mueller Hinton broth, 37 °C, 24 h, 10^6 CFU/mL, by eye and OD600, ± SD, at least three replicates
Procedure: (§1) E. coli (ATCC 25922), S. aureus (ATCC 6538), and C. albicans SC5314 (ATCC MYA-2876) were purchased from the American Type Culture Collection (ATCC). The two bacterial strains, E. coli and S. aureus, were cultured in Mueller Hinton broth at 37 °C; while the yeast strain, C. albicans, was grown in RPMI 1640 medium at 30 °C. The microdilution method was employed to determine MICs of the amphiphiles against the microorganism strains listed above.[21] Solutions of lipopeptides and biocides were half-diluted serially in 96-well plates using PBS buffer containing 137 mM NaCl, 2.7 mM KCl, 8.1 mM Na2HPO4, and 1.9 mM KH2PO4 for E. coli and S. aureus and using RPMI 1640 for C. albicans. Overnight incubations of the strains, in each respective growth medium, were then inoculated into each well, giving final concentrations of 10^6 CFU/mL for E. coli and S. aureus and 10^5 CFU/mL for C. albicans. Culture media without microorganisms and amphiphiles were employed as positive controls, while fresh microorganism cultures without amphiphiles were used as negative controls. Each plate has both positive controls and negative controls. The plates were then incubated at an appropriate temperature (stated above) for 24 h for the bacterial strains and 48 h for the yeast strain. MICs of each sample were first determined by eye. A more quantitative analysis was carried out by measuring optical densities at 600 nm (OD600) of each well using a Sunrise absorbance microplate reader (Tecan Group Ltd.). Inhibitory ratios (IRs) of each sample at a given concentration against a specific strain, denoted as IRi, were calculated by IRi = (OD600,negative control – OD600,i)/(OD600,negative control – OD600,positive control) × 100%. All experiments were repeated at least three times with each group containing three replicates. To better analyze concentration–IR relationships, sigmoidal function fittings were employed to generate the best fitted dose response curve for each situation.

[3] = tested on: C. albicans SC5314 (ATCC MYA-2876); assay type: cell-based, Candida albicans; settings: for MIC/CAC, converted data, C. albicans: MIC divided by the amphiphile's CAC; for MIC, C. albicans: microdilution in RPMI 1640, 30 °C, 48 h, 10^5 CFU/mL, by eye and OD600, ± SD, at least three replicates
Procedure: as §1

| SMILES | Γlipid, DPPC remaining on the surface after amphiphile binding ([1]; NR best fit, DPPC monolayer at 28 mN/m, 3.08 ± 0.08 before) [μmol/m^2] | Γlipid, DPPG remaining on the surface after amphiphile binding ([1]; NR best fit, DPPG monolayer at 28 mN/m, 3.35 ± 0.01 before) [μmol/m^2] | Γamphiphile, amount bound to DPPC monolayer ([1]; NR best fit) [μmol/m^2] | Γamphiphile, amount bound to DPPG monolayer ([1]; NR best fit) [μmol/m^2] | DPPG lipid removed from monolayer [1] [%] | MIC/CAC, converted data, E. coli [2] | MIC, E. coli [2] [µM] | MIC/CAC, converted data, C. albicans [3] | MIC, C. albicans [3] [µM] |
| --- | --- | --- | --- | --- | --- | --- | --- | --- | --- |
| CCCCCCCCCCCC[N+](C)(C)C.[Br-] [C12TAB, dodecyltrimethylammonium bromide] | 2.55 ± 0.01 | 2.70 ± 0.20 | 0.98 ± 0.02 | 1.51 ± 0.01 | 22 | 0.20 ± 0.04 | 200 ± 40 | 0.10 ± 0.03 | 100 ± 30 |
| CCCCCCCCCCCCCC[N+](C)(C)C.[Br-] [C14TAB, tetradecyltrimethylammonium bromide] |  |  | 1.10 ± 0.01 | 1.43 ± 0.02 | 19 | 1 and 1.00 ± 0.30 | 100 ± 30 | 0.12 ± 0.02 | 12 ± 2 |
